Structures can show the parent of a compound that is named as a salt. Where two headings read alike, the source gives them in different places.
Experiments:
physchem = experiment: physchem
From the text: (§1) Condition A: For the Measurement of the Assay of Acid Addition Salt of Clopidogrel
(§2) Column: Kromasil C18, 5 μm (250 mm×4.6 mm)
(§3) Mobile phase: Na2HPO4—NaH2PO4 buffer solution:TBF:CH3CN=5:2:3 (v/v)
The camphorsulfonate polymorphic form A1 obtained in Example 1, the camphorsulfonate polymorphic form B1 obtained in Example 2, the hydrogen sulfate obtained in Comparative Example 1 and the benzenesulfonate obtained in Comparative Example 2 were each dissolved in unionized water until saturated. The amounts of clopidogrel in the resulting solutions were measured under HPLC condition A, and the results are shown in Table 5.

[1] = for water content / hygroscopicity under accelerated condition: 60° C. and 75% relative humidity for a period of over 28 days; for Amount of acid addition salts of clopidogrel / Amount of hydrolyzed impurities / Amount of levorotatory isomers / Water content: 60±2° C., 75±5% relative humidity
Method: as §1, §2, §3
Condition B: For the Measurement of the Amount of Hydrolyzed Impurities of Acid Addition Salt of Clopidogrel
Column: Capcellpak C18 MG, 5 μm (250 mm×4.6 mm)
Mobile phase: KH2PO4 buffer solution/CH3CN (70/30):KH2PO4 buffer solution/CH3CN (30/70)=0:100→[…] (v/v, gradient elution)
Condition C: For the Measurement of the Optical Purity of Acid Addition Salt of Clopidogrel
Column: Chiralpak AD, 5 μm (250 mm×4.6 mm)
Mobile phase: n-hexane:isopropanol=90:10 (v/v)
The camphorsulfonate polymorphic form A1 obtained in Example 1, the camphorsulfonate polymorphic form B1 obtained in Example 2, the hydrogen sulfate obtained in Comparative Example 1 and the benzenesulfonate obtained in Comparative Example 2 were each subjected to a condition of 60±2° C. and 75±5% relative humidity for a period of 28 days to test their stabilities. The changes of the assay of the acid addition salts of clopidogrel, and the amounts of hydrolyzed impurities and levorotatory isomers thereof and the water content thereof were measured at 7, 14, 21 and 28 days relative to that of the initial day (0) using HPLC. The results are shown in Tables 6 to 9 and FIGS. 12 to 15, respectively.

[2] = dissolved in unionized water until saturated, HPLC condition A

Water-solubility (physchem; [2]) | Amount of acid addition salts of clopidogrel ([1]; 0 day) | Amount of hydrolyzed impurities ([1]; 0 day) | Amount of levorotatory isomers ([1]; 0 day) | Water content ([1]; 0 day) | Amount of acid addition salts of clopidogrel ([1]; 7 days) | Amount of hydrolyzed impurities ([1]; 7 days) | Amount of levorotatory isomers ([1]; 7 days) | Water content ([1]; 7 days) | Amount of acid addition salts of clopidogrel ([1]; 14 days) | Amount of hydrolyzed impurities ([1]; 14 days) | Amount of levorotatory isomers ([1]; 14 days) | Water content ([1]; 14 days) | Water content ([1]; 21 days) | Amount of acid addition salts of clopidogrel ([1]; 28 days) | Amount of hydrolyzed impurities ([1]; 28 days) | Amount of levorotatory isomers ([1]; 28 days) | Water content ([1]; 28 days) | Compound | water content / hygroscopicity under accelerated condition [1] | other results
4.04 mg/ml, as clopidogrel | 99.2% | 0.01% | 0.02% | 0.0% | 99.1% | 0.08% | 0.02% | 0.1% | 99.6% | 0.15% | 0.02% | 0.0% | 0.0% | 99.1% | 0.17% | 0.02% | 0.1% | COC(=O)C(c1ccccc1Cl)N1CCc2sccc2C1 (stereo in doubt) [Camphorsulfonate (polymorphic form A1), clopidogrel (−)-(1R)-camphor-10-sulfonate] | almost maintain their original water contents | solubility (physchem; unionized water, water, thermodynamic from solid): ~4000 µg/mL
3.98 mg/ml, as clopidogrel | 99.6% | 0.01% | 0.01% | 0.1% | 99.2% | 0.01% | 0.01% | 0.1% | 99.9% | 0.02% | 0.02% | 0.1% | 0.1% | 99.3% | 0.03% | 0.03% | 0.1% | COC(=O)[C@H](c1ccccc1Cl)N1CCc2sccc2C1 [Camphorsulfonate (polymorphic form B1), clopidogrel (+)-(1S)-camphor-10-sulfonate] | almost maintain their original water contents | Water-solubility (physchem; measured in a saturated aqueous solution): around 4.0 mg/ml
7.42 mg/ml, as clopidogrel | 99.2% | 0.03% | 0.01% | 0.2% | 98.8% | 0.72% | 0.05% | 0.3% | 97.5% | 2.15% | 0.19% | 0.8% | 2.8% | 80.5% | 16.49% | 1.53% | 7.3% | COC(=O)[C@H](c1ccccc1Cl)N1CCc2sccc2C1 [Hydrogen sulfate, Clopidogrel hydrogen sulfate, reference compound] | – | –

Compound | Water-solubility (physchem; [2]) | Amount of acid addition salts of clopidogrel ([1]; 0 day) | Amount of hydrolyzed impurities ([1]; 0 day) | Amount of levorotatory isomers ([1]; 0 day) | Water content ([1]; 0 day) | Amount of acid addition salts of clopidogrel ([1]; 7 days) | Amount of hydrolyzed impurities ([1]; 7 days) | Amount of levorotatory isomers ([1]; 7 days) | Water content ([1]; 7 days) | Amount of acid addition salts of clopidogrel ([1]; 14 days) | Amount of hydrolyzed impurities ([1]; 14 days) | Amount of levorotatory isomers ([1]; 14 days) | Water content ([1]; 14 days) | Water content ([1]; 21 days) | Amount of acid addition salts of clopidogrel ([1]; 28 days) | Amount of hydrolyzed impurities ([1]; 28 days) | Amount of levorotatory isomers ([1]; 28 days) | Water content ([1]; 28 days) | water content / hygroscopicity under accelerated condition [1] | other results
Clopidogrel benzenesulfonate [reference compound] | 4.74 mg/ml, as clopidogrel | 99.3% | 0.01% | 0.01% | 0.1% | 93.9% | 2.79% | 0.81% | 6.4% | 80.5% | 8.56% | 2.49% | 7.3% | 9.2% | 61.7% | 25.33% | 4.79% | 9.4% | – | –

Source: US20090209576A1, “PHARMACEUTICAL COMPOSITION CONTAINING CLOPIDOGREL CAMPHORSULFONATE OR POLYMORPHIC FORMS THEREOF” (HANMI PHARM. CO., LTD., priority 2006, published 2009)
